For 14 compounds, IC50 results are on record in US20250282799A1, “SUBSTITUTED PYRIDO[4,3-d]PYRIMIDINES AS KRAS MODULATORS” (Alterome Therapeutics, Inc., priority 2023, published 2025).

In this assay the test system is KRAS G12V dependent lung adenocarcinoma cell line, NCI-H441. The experiment in a line: Cellular pERK (Thr202/Tyr204) FRET/HTRF assay. Type of assay: cell-based. The settings on record: Homo sapiens, NCI-H441, pERK HTRF, NCI-H441 cells (KRAS G12V). In outline:
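Phospho-ERK1/2 (Thr202/Tyr204) quantified by two-antibody HTRF in lysed NCI-H441 cells. Cells seeded overnight, treated with test compounds for 1 hr at 37 °C against DMSO control, then lysed and detected at room temperature; IC50 obtained by curve fitting.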
In general terms: In TR-FRET formats the signal depends on donor and acceptor labels being close together.
`[2H]C([2H])(Oc1nc(N2CCOC[C@@H]3[C@@H](F)[C@@H]32)c2cnc(-c3cccc4ccc(F)c(C#C)c34)c(F)c2n1)[C@@]12CCCN1C[C@H](F)C2` [Example 46, (1R,7R,8R)-2-(7-(8-ethynyl-7-fluoronaphthalen-1-yl)-8-fluoro-2-(((2R,7aS)-2-fluorotetrahydro-1H-pyrrolizin-7a(5H)-yl)methoxy-d2)pyrido[4,3-d]pyrimidin-4-yl)-8-fluoro-5-oxa-2-azabicyclo[5.1.0]octane] came in with an IC50 of 500 to 10000 nM.

Regarding `[2H]C([2H])(Oc1nc(N2CCOC[C@@H]3C[C@@H]32)c2cnc(-c3ccc(F)c4sc(N)c(C#N)c34)c(F)c2n1)[C@@]12CCCN1C[C@H](F)C2` [Example 47, 4-(4-((1S,7R)-5-Oxa-2-azabicyclo[5.1.0]octan-2-yl)-8-fluoro-2-(((2R,7aS)-2-fluorotetrahydro-1H-pyrrolizin-7a(5H)-yl)methoxy-d2)pyrido[4,3-d]pyrimidin-7-yl)-2-amino-7-fluorobenzo[b]thiophene-3-carbonitrile], the 50% inhibitory concentration (IC50) fell in the range of 500 to 10000 nM.

`[2H]C([2H])(Oc1nc(N2CCOC[C@H]3C[C@H]32)c2cnc(-c3ccc(F)c4sc(N)c(C#N)c34)c(F)c2n1)[C@@]12CCCN1C[C@H](F)C2` [Example 48, 4-(4-((1R,7S)-5-Oxa-2-azabicyclo[5.1.0]octan-2-yl)-8-fluoro-2-(((2R,7aS)-2-fluorotetrahydro-1H-pyrrolizin-7a(5H)-yl)methoxy-d2)pyrido[4,3-d]pyrimidin-7-yl)-2-amino-7-fluorobenzo[b]thiophene-3-carbonitrile] had a half-maximal inhibitory concentration (IC50) of 50 to 500 nM.

On to `[2H]C([2H])([2H])Oc1c(C#N)ccc2cc(N)cc(-c3ncc4c(N5CCCC[C@H]6[C@H](F)[C@H]65)nc(OC([2H])([2H])[C@@]56CCCN5C[C@H](F)C6)nc4c3F)c12` [Example 49, 6-Amino-8-(8-fluoro-4-((1S,7R,8S)-8-fluoro-2-azabicyclo[5.1.0]octan-2-yl)-2-(((2R,7aS)-2-fluorotetrahydro-1H-pyrrolizin-7a(5H)-yl)methoxy-d2)pyrido[4,3-d]pyrimidin-7-yl)-1-(methoxy-d3)-2-naphthonitrile], for which the IC50 was under 50 nM.

Regarding `[2H]C([2H])([2H])Oc1c(C#N)c(F)cc2cc(N)cc(-c3ncc4c(N5CCCC[C@H]6[C@H](F)[C@H]65)nc(OC([2H])([2H])[C@@]56CCCN5C[C@H](F)C6)nc4c3F)c12` [Example 50, 6-Amino-3-fluoro-8-(8-fluoro-4-((1S,7R,8S)-8-fluoro-2-azabicyclo[5.1.0]octan-2-yl)-2-(((2R,7aS)-2-fluorotetrahydro-1H-pyrrolizin-7a(5H)-yl)methoxy-d2)pyrido[4,3-d]pyrimidin-7-yl)-1-(methoxy-d3)-2-naphthonitrile], the IC50 was under 50 nM.

`[2H]C([2H])(Oc1nc(N2CCC[C@@H]3C[C@@H]32)c2cnc(-c3cc(N)cc4cc(F)c(F)c(C#C)c34)c(F)c2n1)[C@@]12CCCN1C[C@H](F)C2` [Example 51, 4-(4-((1S,6R)-2-Azabicyclo[4.1.0]heptan-2-yl)-8-fluoro-2-(((2R,7aS)-2-fluorotetrahydro-1H-pyrrolizin-7a(5H)-yl)methoxy-d2)pyrido[4,3-d]pyrimidin-7-yl)-5-ethynyl-6,7-difluoronaphthalen-2-amine] gave an IC50 of 500 to 10000 nM.

The compound `[2H]C([2H])(Oc1nc(N2CCC[C@H]3C[C@H]32)c2cnc(-c3cc(N)cc4cc(F)c(F)c(C#C)c34)c(F)c2n1)[C@@]12CCCN1C[C@H](F)C2` [Example 52, 4-(4-((1R,6S)-2-azabicyclo[4.1.0]heptan-2-yl)-8-fluoro-2-(((2R,7aS)-2-fluorotetrahydro-1H-pyrrolizin-7a(5H)-yl)methoxy-d2)pyrido[4,3-d]pyrimidin-7-yl)-5-ethynyl-6,7-difluoronaphthalen-2-amine] had an IC50 of 50 to 500 nM.

Regarding `[2H]C([2H])(Oc1nc(N2CCC[C@@H]3[C@@H](F)[C@@H]32)c2cnc(-c3cc(N)cc4cc(F)c(F)c(C#C)c34)c(F)c2n1)[C@@]12CCCN1C[C@H](F)C2` [Example 53, 5-Ethynyl-6,7-difluoro-4-(8-fluoro-4-((1R,6S,7R)-7-fluoro-2-azabicyclo[4.1.0]heptan-2-yl)-2-(((2R,7aS)-2-fluorotetrahydro-1H-pyrrolizin-7a(5H)-yl)methoxy-d2)pyrido[4,3-d]pyrimidin-7-yl)naphthalen-2-amine], the half-maximal inhibitory concentration (IC50) is 50 to 500 nM.

Consider `[2H]C([2H])(Oc1nc(N2CCC[C@H]3[C@H](F)[C@H]32)c2cnc(-c3cc(N)cc4cc(F)c(F)c(C#C)c34)c(F)c2n1)[C@@]12CCCN1C[C@H](F)C2` [Example 54, 5-Ethynyl-6,7-difluoro-4-(8-fluoro-4-((1S,6R,7S)-7-fluoro-2-azabicyclo[4.1.0]heptan-2-yl)-2-(((2R,7aS)-2-fluorotetrahydro-1H-pyrrolizin-7a(5H)-yl)methoxy-d2)pyrido[4,3-d]pyrimidin-7-yl)naphthalen-2-amine], for which the concentration for half-maximal inhibition (IC50) was under 50 nM.

For the compound `[2H]C([2H])(Oc1nc(N2CCCCC[C@@H]3C[C@@H]32)c2cnc(-c3cc(N)cc4cc(F)c(F)c(C#C)c34)c(F)c2n1)[C@@]12CCCN1C[C@H](F)C2` [Example 55, 4-(4-((1S,8R)-2-azabicyclo[6.1.0]nonan-2-yl)-8-fluoro-2-(((2R,7aS)-2-fluorotetrahydro-1H-pyrrolizin-7a(5H)-yl)methoxy-d2)pyrido[4,3-d]pyrimidin-7-yl)-5-ethynyl-6,7-difluoronaphthalen-2-amine], the IC50 was 500 to 10000 nM.

`[2H]C([2H])(Oc1nc(N2CCCCC[C@H]3C[C@H]32)c2cnc(-c3cc(N)cc4cc(F)c(F)c(C#C)c34)c(F)c2n1)[C@@]12CCCN1C[C@H](F)C2` [Example 56, 4-(4-((1R,8S)-2-azabicyclo[6.1.0]nonan-2-yl)-8-fluoro-2-(((2R,7aS)-2-fluorotetrahydro-1H-pyrrolizin-7a(5H)-yl)methoxy-d2)pyrido[4,3-d]pyrimidin-7-yl)-5-ethynyl-6,7-difluoronaphthalen-2-amine] registered an IC50 of under 50 nM.

As for `C#Cc1c(F)ccc2cc(N)cc(-c3ncc4c(N5CCCCC6C5C6(F)F)nc(OC[C@@]56CCCN5C[C@H](F)C6)nc4c3F)c12` (stereo partly drawn) [Example 57, 4-(4-(8,8-Difluoro-2-azabicyclo[5.1.0]octan-2-yl)-8-fluoro-2-(((2R,7aS)-2-fluorotetrahydro-1H-pyrrolizin-7a(5H)-yl)methoxy)pyrido[4,3-d]pyrimidin-7-yl)-5-ethynyl-6-fluoronaphthalen-2-amine], the IC50 was in the range of 50 to 500 nM.

`[2H]C([2H])(Oc1nc(N2CCCCC[C@@H]3[C@@H](F)[C@@H]32)c2cnc(-c3cc(N)cc4cc(F)c(F)c(C#C)c34)c(F)c2n1)[C@@]12CCCN1C[C@H](F)C2` [Example 59, 5-Ethynyl-6,7-difluoro-4-(8-fluoro-4-((1R,8S,9R)-9-fluoro-2-azabicyclo[6.1.0]nonan-2-yl)-2-(((2R,7aS)-2-fluorotetrahydro-1H-pyrrolizin-7a(5H)-yl)methoxy-d2)pyrido[4,3-d]pyrimidin-7-yl)naphthalen-2-amine]: the IC50 lay within 500 to 10000 nM.

The compound `[2H]C([2H])(Oc1nc(N2CCCCC[C@H]3[C@H](F)[C@H]32)c2cnc(-c3cc(N)cc4cc(F)c(F)c(C#C)c34)c(F)c2n1)[C@@]12CCCN1C[C@H](F)C2` [Example 60, 5-Ethynyl-6,7-difluoro-4-(8-fluoro-4-((1S,8R,9S)-9-fluoro-2-azabicyclo[6.1.0]nonan-2-yl)-2-(((2R,7aS)-2-fluorotetrahydro-1H-pyrrolizin-7a(5H)-yl)methoxy-d2)pyrido[4,3-d]pyrimidin-7-yl)naphthalen-2-amine] came in with an IC50 of under 50 nM.

The term IC50 denotes the concentration that inhibits the measured activity by half. Read a low IC50 as greater potency in that assay.
